In the supplement of paper PMC10307832:

Key:
Test in all cases: relative viability (nuclei count vs DMSO), 5 days (fraction); higher = more cells survive
NCI-H727 = tested on: NCI-H727
How it was run: (§1)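 Lung cancer cell lines were seeded in 1536-well plates and dosed by pin tool the next day, with either a single drug or a fixed anchor-drug dose combined with five library-drug doses (not always all listed) spaced in √10 steps. Five days later, one step fixed the cells and stained their nuclei (final 0.05% Triton X-100, 1% formaldehyde, 1 ug/ml Hoechst), and nuclei were counted on 4× images. Relative viability is the nuclei count in treated wells divided by the count in vehicle wells, and each value is the median of duplicate plates.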

SW 1573 = tested on: SW 1573
How it was run: as §1

NCI-H1563 = tested on: NCI-H1563
How it was run: as §1

NCI-H23 = tested on: NCI-H23
How it was run: as §1

LCLC-103H = tested on: LCLC-103H
How it was run: as §1

NCI-H650 = tested on: NCI-H650
How it was run: as §1

NCI-H1944 = tested on: NCI-H1944
How it was run: as §1

PC-3 [JPC-3] = tested on: PC-3 [JPC-3]
How it was run: as §1

NCI-H1651 = tested on: NCI-H1651
How it was run: as §1

NCI-H460 = tested on: NCI-H460
How it was run: as §1

RERF-LC-KJ = tested on: RERF-LC-KJ
How it was run: as §1

COR-L23 = tested on: COR-L23
How it was run: as §1

LK-2 = tested on: LK-2
How it was run: as §1

A-427 = tested on: A-427
How it was run: as §1

PC-14 = tested on: PC-14
How it was run: as §1

LU99A = tested on: LU99A
How it was run: as §1

NCI-H1793 = tested on: NCI-H1793
How it was run: as §1

201T = tested on: 201T
How it was run: as §1

LCLC-97TM1 = tested on: LCLC-97TM1
How it was run: as §1

NCI-H838 = tested on: NCI-H838
How it was run: as §1

H3255 = tested on: H3255
How it was run: as §1

NCI-H2347 = tested on: NCI-H2347
How it was run: as §1

`Clc1ccc(Nc2nnc(Cc3ccncc3)c3ccccc23)cc1` [Vatalanib] + Cc1nc(NC(=O)N2CCC[C@H]2C(N)=O)sc1-c1ccnc(C(C)(C)C(F)(F)F)c1 [Alpelisib] (partner 2 µM) showed a relative viability (NCI-H727; first compound 0.04 µM) of 0.463, a relative viability (NCI-H727; first compound 0.1265 µM) of 0.528 and a relative viability (NCI-H727; first compound 0.4 µM) of 0.666. For the same molecule, the relative viability (NCI-H727; first compound 1.265 µM) was 0.397, the relative viability (NCI-H727; first compound 4 µM) was 0.566 and the relative viability (SW 1573; first compound 0.04 µM) was 0.75. The relative viability (SW 1573; first compound 0.1265 µM) was 0.598, the relative viability (SW 1573; first compound 0.4 µM) was 0.749 and the relative viability (SW 1573; first compound 1.265 µM) was 0.79. It also gave a relative viability (SW 1573; first compound 4 µM) of 0.667, a relative viability (NCI-H1563; first compound 0.04 µM) of 0.937 and a relative viability (NCI-H1563; first compound 0.1265 µM) of 0.862. The relative viability (NCI-H1563; first compound 0.4 µM) was 1.03, the relative viability (NCI-H1563; first compound 1.265 µM) was 0.863 and the relative viability (NCI-H1563; first compound 4 µM) was 0.979. The relative viability (NCI-H23; first compound 0.04 µM) was 0.649, the relative viability (NCI-H23; first compound 0.1265 µM) was 0.672 and the relative viability (NCI-H23; first compound 0.4 µM) was 0.78. The relative viability (NCI-H23; first compound 1.265 µM) was 0.775, the relative viability (NCI-H23; first compound 4 µM) was 0.75 and the relative viability (LCLC-103H; first compound 0.04 µM) was 0.987. It also gave a relative viability (LCLC-103H; first compound 0.1265 µM) of 0.923, a relative viability (LCLC-103H; first compound 0.4 µM) of 1.02 and a relative viability (LCLC-103H; first compound 1.265 µM) of 0.954. The relative viability (LCLC-103H; first compound 4 µM) was 0.96, the relative viability (NCI-H650; first compound 0.04 µM) was 1.24 and the relative viability (NCI-H650; first compound 0.1265 µM) was 0.936. The relative viability (NCI-H650; first compound 1.265 µM) was 1.06, the relative viability (NCI-H650; first compound 4 µM) was 1.13 and the relative viability (NCI-H1944; first compound 0.04 µM) was 0.888. For the same molecule, the relative viability (NCI-H1944; first compound 0.1265 µM) was 0.706, the relative viability (NCI-H1944; first compound 0.4 µM) was 0.833 and the relative viability (NCI-H1944; first compound 1.265 µM) was 0.808. It also gave a relative viability (NCI-H1944; first compound 4 µM) of 0.864, a relative viability (PC-3 [JPC-3]; first compound 0.04 µM) of 1.01 and a relative viability (PC-3 [JPC-3]; first compound 0.1265 µM) of 0.972. The relative viability (PC-3 [JPC-3]; first compound 0.4 µM) was 1.01, the relative viability (PC-3 [JPC-3]; first compound 1.265 µM) was 0.941 and the relative viability (PC-3 [JPC-3]; first compound 4 µM) was 1.01. It also gave a relative viability (NCI-H1651; first compound 0.04 µM) of 0.869, a relative viability (NCI-H1651; first compound 0.1265 µM) of 0.863 and a relative viability (NCI-H1651; first compound 0.4 µM) of 0.968. The relative viability (NCI-H1651; first compound 1.265 µM) was 0.894, the relative viability (NCI-H1651; first compound 4 µM) was 0.929 and the relative viability (NCI-H460; first compound 0.04 µM) was 0.512. It also gave a relative viability (NCI-H460; first compound 0.1265 µM) of 0.392, a relative viability (NCI-H460; first compound 0.4 µM) of 0.654 and a relative viability (NCI-H460; first compound 1.265 µM) of 0.467. For the same molecule, the relative viability (NCI-H460; first compound 4 µM) was 0.441, the relative viability (RERF-LC-KJ; first compound 0.04 µM) was 0.824 and the relative viability (RERF-LC-KJ; first compound 0.1265 µM) was 0.859. It also gave a relative viability (RERF-LC-KJ; first compound 0.4 µM) of 0.77, a relative viability (RERF-LC-KJ; first compound 1.265 µM) of 0.74 and a relative viability (RERF-LC-KJ; first compound 4 µM) of 0.765. It also gave a relative viability (COR-L23; first compound 0.04 µM) of 0.769, a relative viability (COR-L23; first compound 0.1265 µM) of 0.75 and a relative viability (COR-L23; first compound 0.4 µM) of 1.07. The relative viability (COR-L23; first compound 1.265 µM) was 0.665, the relative viability (COR-L23; first compound 4 µM) was 0.739 and the relative viability (LK-2; first compound 0.04 µM) was 0.951. It also gave a relative viability (LK-2; first compound 0.1265 µM) of 0.999, a relative viability (LK-2; first compound 1.265 µM) of 1.07 and a relative viability (LK-2; first compound 4 µM) of 1.24. The relative viability (A-427; first compound 0.04 µM) was 0.988, the relative viability (A-427; first compound 0.1265 µM) was 1.06 and the relative viability (A-427; first compound 0.4 µM) was 1.13. The relative viability (A-427; first compound 1.265 µM) was 1.11, the relative viability (A-427; first compound 4 µM) was 1.08 and the relative viability (PC-14; first compound 0.04 µM) was 0.993. For the same molecule, the relative viability (PC-14; first compound 0.1265 µM) was 0.9, the relative viability (PC-14; first compound 0.4 µM) was 0.97 and the relative viability (PC-14; first compound 1.265 µM) was 0.904. For the same molecule, the relative viability (PC-14; first compound 4 µM) was 0.866, the relative viability (LU99A; first compound 0.04 µM) was 0.541 and the relative viability (LU99A; first compound 0.1265 µM) was 0.514. For the same molecule, the relative viability (LU99A; first compound 0.4 µM) was 0.531, the relative viability (LU99A; first compound 1.265 µM) was 0.503 and the relative viability (LU99A; first compound 4 µM) was 0.575. For the same molecule, the relative viability (NCI-H1793; first compound 0.04 µM) was 0.554, the relative viability (NCI-H1793; first compound 0.1265 µM) was 0.659 and the relative viability (NCI-H1793; first compound 0.4 µM) was 0.569. The relative viability (NCI-H1793; first compound 1.265 µM) was 0.635, the relative viability (NCI-H1793; first compound 4 µM) was 0.647 and the relative viability (201T; first compound 0.04 µM) was 0.984. It also gave a relative viability (201T; first compound 0.1265 µM) of 1.03, a relative viability (201T; first compound 0.4 µM) of 1.04 and a relative viability (201T; first compound 1.265 µM) of 1.03. It also gave a relative viability (201T; first compound 4 µM) of 1.07, a relative viability (LCLC-97TM1; first compound 0.04 µM) of 0.248 and a relative viability (LCLC-97TM1; first compound 0.1265 µM) of 0.2. The relative viability (LCLC-97TM1; first compound 0.4 µM) was 0.262, the relative viability (LCLC-97TM1; first compound 1.265 µM) was 0.178 and the relative viability (LCLC-97TM1; first compound 4 µM) was 0.353. For the same molecule, the relative viability (NCI-H838; first compound 0.04 µM) was 0.975, the relative viability (NCI-H838; first compound 0.1265 µM) was 1.07 and the relative viability (NCI-H838; first compound 0.4 µM) was 1.06. It also gave a relative viability (NCI-H838; first compound 1.265 µM) of 0.864, a relative viability (NCI-H838; first compound 4 µM) of 0.985 and a relative viability (H3255; first compound 0.04 µM) of 0.649. It also gave a relative viability (H3255; first compound 0.1265 µM) of 0.666, a relative viability (H3255; first compound 0.4 µM) of 0.514 and a relative viability (H3255; first compound 1.265 µM) of 0.705. The relative viability (H3255; first compound 4 µM) was 0.618, the relative viability (NCI-H2347; first compound 0.04 µM) was 1.05 and the relative viability (NCI-H2347; first compound 0.1265 µM) was 1.13. It also gave a relative viability (NCI-H2347; first compound 0.4 µM) of 1.03, a relative viability (NCI-H2347; first compound 1.265 µM) of 0.963 and a relative viability (NCI-H2347; first compound 4 µM) of 1.03.
